In data set [1] the test system is D4 CHO cells (expresses only human FRβ). Put plainly: Cell proliferation assay, D4 CHO subline. In kind it is cell-based, Chinese hamster. The note with it: 96 h, 2 nM leucovorin, mean (standard error). The source says:
We used a unique panel of engineered Chinese hamster ovary (CHO) sublines derived from a transporter-null MTXRIIOua^R2-4 CHO subline (R2) and designed to individually express human FRα (RT16), FRβ (D4), RFC (PC43-10), or PCFT (R2/PCFT).[39]−[42] As the CHO sublines are isogenic and differ only in the presence or absence of the human folate transporters, differences in the extent of inhibition of cell proliferation between the cell lines upon treatment with the various compounds provide a robust readout of transport specificities.[25],[26],[29],[30],[43]
(§1) The CHO sublines were treated for 96 h with a range of drug concentrations up to 1000 nM; cell viabilities were measured with a fluorescence assay.[26] […] As a control, we used transporter-null R2 cells.[42] To extend studies to human tumor cells, we also performed experiments in RFC-, PCFT-, and FRα-expressing KB tumor cells.[44] To confirm the contribution of FR-mediated uptake to antitumor activity, for KB cells, we added 200 nM folic acid, which inhibits FR uptake by direct competition without effects on either RFC or PCFT.[25],[26],[28]−[30],[43]
The MTXRIIOua^R2-4 RFC-, PCFT-, and FRα-null Chinese hamster ovary (CHO) cell line (R2) was a gift from Dr. Wayne Flintoff (University of Western Ontario).[40],[42] Isogenic CHO cell lines were subsequently derived from R2 cells by transfection with RFC, PCFT, or FRα cDNAs to generate PC43-10 (expresses only human RFC), R2/PCFT4 (expresses only human PCFT), RT16 (expresses only human FRα), and D4 (expresses only human FRβ).[25],[26],[39]
(§2) The CHO sublines were cultured in α-minimal essential medium (α-MEM) supplemented with 100 U/mL penicillin/100 μg/mL streptomycin, 2 mM L-glutamine, and 10% bovine calf serum (Sigma-Aldrich). For the PC43-10, R2/PCFT4, RT16, and D4 sublines, 1.5 mg/mL G418 was also added. Seventy-two hours prior to in vitro proliferation assays (below), RT16 and D4 CHO cells were grown in folate-free RPMI with dialyzed fetal bovine serum (DFBS) (Invitrogen) supplemented with 100 U/mL penicillin/[…] streptomycin and 2 mM L-glutamine. FRα-expressing KB nasopharyngeal carcinoma cells were acquired from the American Type Culture Collection (Manassas, VA); cells were grown in complete folate-free RPMI 1640 supplemented with 10% fetal bovine serum, 100 U/mL penicillin/100 μg/mL streptomycin, and 2 mM L-glutamine. Cell lines were authenticated by STR analysis (Genetica DNA Laboratories, Burlington, NC) and tested for Mycoplasma by PCR (Venor GeM Mycoplasma Detection Kit, Sigma). Frozen stocks were generated from authenticated Mycoplasma-free cultures.
(§3) Cell proliferation assays used CHO and KB cells cultured in folate-free-RPMI 1640 media with 10% DFBS, 2 mM L-glutamine, and 100 U/mL penicillin/100 μg/mL streptomycin supplemented with 2 nM (KB, RT16, D4) or 25 nM (R2, PC43-10, R2/PCFT4) leucovorin.[25],[26],[30] Parallel incubations with 200 nM folic acid were performed in viability assays to confirm FR-mediated drug uptake. Cells were plated in 96-well dishes at 2500–5000 cells/well in 200 μL media and treated with a range of C1 inhibitors spanning 0 to 1 μM. Cells were treated at 37 ° C with 5% CO2, and numbers were assayed after 96 h using CellTiter-blue (Promega, Madison, WI) and a fluorescence plate reader.[25],[26]

Data set [2] has as its system KB human tumor cells (RFC/FRα/PCFT). Kind of data set: Cell proliferation assay, KB tumor cells (with or without 200 nM folic acid). In kind it is cell-based. The note with it: 96 h, 2 nM leucovorin, no folic acid, mean (standard error). Here is the method:
as §1, §2, §3

The target in a further data set is T1, SHMT2 (Homo sapiens, UniProt P34897).
T1 construct: N-terminal His6-tagged SHMT2 (residues 30–504); made in house; host or cells: E. coli Rosetta (DE3)pLysS
T1 sequence (P34897 30-504): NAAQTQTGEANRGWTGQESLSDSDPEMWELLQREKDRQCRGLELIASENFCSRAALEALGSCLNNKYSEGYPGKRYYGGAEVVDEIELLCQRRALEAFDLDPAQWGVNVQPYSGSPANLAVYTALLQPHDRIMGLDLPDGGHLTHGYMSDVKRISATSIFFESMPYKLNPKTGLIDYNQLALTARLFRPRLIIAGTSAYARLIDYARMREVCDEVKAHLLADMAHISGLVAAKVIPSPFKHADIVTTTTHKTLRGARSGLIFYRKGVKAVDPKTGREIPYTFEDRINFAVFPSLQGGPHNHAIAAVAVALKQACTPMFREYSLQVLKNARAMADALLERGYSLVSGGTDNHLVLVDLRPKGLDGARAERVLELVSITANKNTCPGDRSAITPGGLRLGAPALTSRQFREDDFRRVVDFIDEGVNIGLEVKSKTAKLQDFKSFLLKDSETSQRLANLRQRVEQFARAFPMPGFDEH
Put plainly: SHMT2 coupled enzyme assay with MTHFD2 (NADH production). The data set is classed as biochemical. The note with it: mean (standard error), at least three replicate assays.

pIC50, pKi: −log10 of the molar value.

Consider 8 compounds from article PMC10186366 (ACS Pharmacology & Translational Science, 2023).

Experimental for SHMT2: N-terminal His6-tagged SHMT2 (residues 30–504) and full-length MTHFD2 were expressed in Rosetta (DE3)pLysS cells. One liter cultures were grown in LB media with 100 mg/mL ampicillin and 35 mg/mL chloramphenicol at 37 °C until the OD600 was 0.6. […] The cells were pelleted and resuspended in 25 mL of 25 mM Tris–HCl, pH 7.5, 300 mM NaCl, and 5 mM β-Me. To lyse the cells, 40 mg lysozyme and 8 U DNAse I were added followed by incubation on ice for 15 min. The cells were then lysed by emulsification.
Purification of His-SHMT2 and His-MTHFD2 was by Ni-affinity chromatography (above). For further purification of His-SHMT2, pyridoxal 5′-phosphate (PLP) was added (3-fold excess to His-SHMT2) followed by incubation for 16–18 h. Further purification was by size exclusion chromatography on a Superdex 200 16/60 column (GE Healthcare) with monitoring of PLP absorbance at 435 nm. Purified His-SHMT2 was stored in 20 mM sodium phosphate buffer, pH 7.5, 100 mM potassium chloride, 0.2 mM EDTA, and 5 mM β-ME. To further purify MTHFD2, size exclusion chromatography was performed using a Superdex 200 16/60 column (GE Healthcare). His-MTHFD2 was stored in 50 mM Tris–HCl buffer, pH 7.5, 250 mM sodium chloride, 5% glycerol, and 0.5 mM tris(2-chloroethyl) phosphate (TCEP).
Kinetic measurements were recorded in triplicate in a UV-transparent 96-well plate (Costar 3635) at 298 nm using a BioTek Synergy Neo2 Plate Reader. Initial slopes were graphed against inhibitor concentrations and fit to a three-parameter nonlinear regression to calculate IC50 values for each compound (GraphPad Prism 8.0). […] SHMT2 activity was assayed by monitoring NADH production with a coupled assay including 500 nM His-SHMT2 and 10 μM His-MTHFD2 (1:200 molar ratio His-SHMT2/His-MTHFD2). NADH production by His-MTHFD2 was monitored by fluorescence at 470 nm with excitation at 360 nm (Synergy Neo2 Biotek plate reader). Inhibition constants (Ki’s) were calculated from the IC50 values using the equation Ki = IC50/([S]/KM + 1) and the Km and substrate concentration for THF. The THF concentration in the reaction was 50 mM.

For `Nc1nc2sc(CCCCc3cccc(C(=O)N[C@@H](CCC(=O)O)C(=O)O)n3)cc2c(=O)[nH]1` [Compound 3, (6-(4-(2-Amino-4-oxo-3,4-dihydrothieno[2,3-d]pyrimidin-6-yl)butyl)picolinoyl)-L-glutamic Acid], the melting point (usually the temperature, or range, at which the solid turns liquid) was 125.8 to 126.2 °C. In data set [1], the pIC50 – broadly, the negative decadic logarithm of the IC50, by convention in mol/L – was 7.38.
With `Nc1nc2sc(CCCc3csc(C(=O)N[C@@H](CCC(=O)O)C(=O)O)c3F)cc2c(=O)[nH]1` [Compound 8, (4-(3-(2-Amino-4-oxo-3,4-dihydrothieno[2,3-d]pyrimidin-6-yl)propyl)-3-fluorothiophene-2-carbonyl)-L-glutamic Acid], the negative logarithm of the IC50 (pIC50) in data set [2] is 8.16; in data set [1], 9.59.
The compound `Nc1nc2sc(CCCCc3ccc(C(=O)N[C@@H](CCC(=O)O)C(=O)O)c(F)c3)cc2c(=O)[nH]1` [Compound 7, (4-(4-(2-Amino-4-oxo-3,4-dihydrothieno[2,3-d]pyrimidin-6-yl)butyl)-2-fluorobenzoyl)-L-glutamic Acid] had a melting point of 121.7 to 122.6 °C. Besides, the pIC50 in data set [2] was 8.28. The pIC50 in data set [1] is 8.94.
For `Nc1nc2sc(CCCCc3cnc(C(=O)N[C@@H](CCC(=O)O)C(=O)O)c(F)c3)cc2c(=O)[nH]1` [Compound 5, (5-(4-(2-Amino-4-oxo-3,4-dihydrothieno[2,3-d]pyrimidin-6-yl)butyl)-3-fluoropicolinoyl)-L-glutamic Acid], in that order: 128 to 129.7 °C, 8.30 and 9.60.
For `Nc1nc2sc(CCCCc3csc(C(=O)N[C@@H](CCC(=O)O)C(=O)O)c3F)cc2c(=O)[nH]1` [Compound 9, (4-(4-(2-Amino-4-oxo-3,4-dihydrothieno[2,3-d]pyrimidin-6-yl)butyl)-3-fluorothiophene-2-carbonyl)-L-glutamic Acid], in that order: 142.3 to 143.5 °C, 8.58 and 9.32.
For the compound `Nc1nc2sc(CCCc3ccc(C(=O)N[C@@H](CCC(=O)O)C(=O)O)cc3)cc2c(=O)[nH]1` [Compound 1], the negative logarithm of the Ki (pKi) – broadly, the negative decadic logarithm of the Ki, by convention in mol/L – at SHMT2 was 4.17.
As for `Nc1nc2sc(CCCCc3ccc(C(=O)N[C@@H](CCC(=O)O)C(=O)O)nc3)cc2c(=O)[nH]1` [Compound 4, (5-(4-(2-Amino-4-oxo-3,4-dihydrothieno[2,3-d]pyrimidin-6-yl)butyl)picolinoyl)-L-glutamic Acid], the pIC50 in data set [2] is 8.68; in data set [1], 7.22.
`Nc1nc2sc(CCCc3ccc(C(=O)N[C@@H](CCC(=O)O)C(=O)O)c(F)c3)cc2c(=O)[nH]1` [Compound 6, (4-(3-(2-Amino-4-oxo-3,4-dihydrothieno[2,3-d]pyrimidin-6-yl)propyl)-2-fluorobenzoyl)-L-glutamic Acid]: the melting point was in the range of 128 to 129.8 °C. Further, the pIC50 in data set [2] is 8.14. Besides, at SHMT2, the pKi is 4.56. In data set [1], this compound had a pIC50 of 9.32.
